The values below come from US10155740B2 (F.I.S.—FABBRICA ITALIANA SINTETICI S.P.A., priority 2016, dated 2018).

Entries after “also recorded” stand apart in the source; their conditions may differ. Like-named read-outs stand apart in the source and are kept apart here.

The nature of data set [1]: Preliminary solubility study of Pomalidomide Form O in a range of solvents. Format: physicochemical. The note with it: for solubility: thermodynamic from solid. The protocol: A preliminary study of the solubility of Pomalidomide Form O was performed in a range of solvents and under the operating conditions given in the following table 5: […]
The conditions of data set [2]: cited from earlier work.
For data set [3] the following is noted: pH 1.2, 4.5 and 6.8, cited from earlier work.
The conditions of data set [4]: 37° C., cited from earlier work.
Data set [5] in a line: Relative stability of crystal forms from preparation tests by suspension in solvent. The settings on record: suspension in solvent (slurrying) tests. It is filed as physicochemical. The method, then: The crystal form of Pomalidomide, named Form M, can be prepared by suspension of the form O under stirring for a night in isopropanol (slurrying) after seeding with Form B.
An alternative method for the preparation of Form M prescribes suspending the form O under stirring for four days (slurrying) in dioxane and seeding with Form A, as described in the present experimental part.
1 g of Pomalidomide Form O prepared as in Example 1, was suspended in 20 ml of isopropanol, seeded with crystals of Pomalidomide Form B and stirred overnight at room temperature, giving after filtration and drying, the new Pomalidomide Form M as crystalline powder.

A short description of data set [6]: Moisture stability test of Form M (RH 100%, XRPD). The settings on record: 100% relative humidity, one night, room temperature. It is filed as physicochemical. The protocol:
Pomalidomide Form M was subjected to a moisture stability test. 100 mg of Pomalidomide Form M, prepared as described above, were maintained for one night at 100% relative humidity (RH 100%), at room temperature and analyzed by XRPD.

For orientation: solubility means how much of the substance goes into solution per volume.

As to `Nc1cccc2c1C(=O)N(C1CCC(=O)NC1=O)C2=O` (racemic) [Pomalidomide Form O], in data set [1] (RT), the “solubility in AcOiBu” value is given as >80 vol RT;, the “solubility in Anisole” value was >80 vol. RT;, the “solubility in CHCl3” value is reported as >80 vol. RT; and the “solubility in DMF” value is 26 vol. Further, in data set [1] (RT), the “solubility in DMSO” value came to 6 vol, the “solubility in Dioxane” value is greater than 80 vol. RT, the “solubility in Et2O” value is reported as >80 vol. RT; and the “solubility in MIBK” value is >80 vol. RT;. Moreover, in data set [1] (RT), the “solubility in MeNO2” value was >80 vol. RT; and the “solubility in NMP” value was 8 vol. The solubility in data set [1] (ethanol, organic solvent or mixture, RT, read-out: solubility in EtOH) was less than 1000 µg/mL. Also, in data set [1] (reflux), the “solubility in AcOiBu” value was greater than 80 vol, the “solubility in Anisole” value is reported as greater than 80 vol, the “solubility in CHCl3” value was greater than 80 vol and the “solubility in Dioxane” value is recorded as less than 80 vol. Moreover, in data set [1] (reflux), the “solubility in Et2O” value is reported as greater than 80 vol, the “solubility in MIBK” value was greater than 80 vol and the “solubility in MeNO2” value was less than 80 vol. reflux. Also, the solubility in data set [1] (water, RT, read-out: solubility in H2O) is less than 1000 µg/mL.
On to `Nc1cccc2c1C(=O)N(C1CCC(=O)NC1=O)C2=O` (racemic) [Pomalidomide, (R,S)-4-Amino-2-(2,6-dioxo-3-piperidinyl)-isoindol-1,3-dione], for which the “solubility in organic solvents” value in data set [2] (absolute ethanol, ethyl acetate, heptane, methanol, 2-propanol, toluene) is given as “very slightly soluble”; in data set [2] (acetone, acetonitrile, methylene chloride, methyl ethyl ketone, THF), “slightly soluble”. In addition, the “solubility of dose in 250 ml of aqueous medium” value was “is not” in data set [3] (clinical dose of 4 mg) and “soluble” in data set [3] (dose of 2 mg). In addition, the “Pomalidomide solubility after 24 hours” value in data set [4] (pH 1.2 (0.05N HCl)) was 15.0 µg/mL; in data set [4] (pH 4.5 (0.05M acetato)), 14.6 µg/mL; in data set [4] (pH 6.8 (0.05M fosfato)), 13.2 µg/mL.
For `Nc1cccc2c1C(=O)N(C1CCC(=O)NC1=O)C2=O` (stereo not shown) [Pomalidomide Form M], the “relative stability of crystal form” value in data set [5] was “higher stability than both Form B and Form O”. The “hygroscopicity / water take-up” value in data set [6] is on record as “did not take-up any water; also recorded: non-hygroscopic”.
